Data on one molecule can be found in ChEMBL document CHEMBL5576083, “Structure-Based Design and Synthesis of Covalent Inhibitors for Deubiquitinase and Acetyltransferase ChlaDUB1 of Chlamydia trachomatis” (J Med Chem, 2024).

In brackets after ≈: the same amount, converted by molar mass. Activity calls are given as the source filed them. The rule behind the calls is not given here.

As usually defined, the IC50 is the midpoint of a concentration-inhibition curve. One may read the solubility (thermodynamic) as solubility found after equilibrating the solid with the medium.

In data set [1] the test system is Chlamydia trachomatis. As to the kind of experiment: Antimicrobial activity against Chlamydia trachomatis serovar L2 infected in human HeLa cells assessed as reduction in microbial progeny at 6.25 ug/ml measured after 48 hrs of post-infection by immunofluorescence analysis. It counts as functional. Further details: scale not given: the % may be the effect or the level left. Particulars: dose 6.25 µg/ml.

Data set [2] has as its system Chlamydia trachomatis. As to the kind of experiment: Antimicrobial activity against Chlamydia trachomatis serovar L2 infected in human HeLa cells assessed as reduction in inclusion forming unit at 12.5 ug/ml measured after 8 hrs of post-infection by immunofluorescence based microscopic analysis. It counts as functional, organism-based. Particulars: dose 12.5 µg/ml.

In data set [3] the test system is Chlamydia trachomatis. As to the kind of experiment: Antimicrobial activity against Chlamydia trachomatis serovar L2 infected in human HeLa cells assessed as inclusion forming unit at 12.5 ug/ml measured at 24 to 48 hrs of post-infection by immunofluorescence based microscopic analysis. It counts as functional. As to conditions: dose 12.5 µg/ml; time 24-48 hrs.

Data set [4] relates to Chlamydia trachomatis. As to the kind of experiment: Anti-chlamydial activity against Chlamydia trachomatis serovar L2 infected in human HEp-2 cells assessed as fold change in inhibition of chlamydial inclusion incubated for 24 hrs by Alexa488/DAPI staining based immunofluorescence assay relative to doxycycline. It counts as functional.
In data set [5] the test system is Chlamydia trachomatis. As to the kind of experiment: Antimicrobial activity against Chlamydia trachomatis serovar L2 infected in human HeLa cells assessed as reduction in microbial progeny at 12.5 ug/ml measured after 48 hrs of post-infection by immunofluorescence analysis. The arrangement: scale not given: the % may be the effect or the level left. As to conditions: dose 12.5 µg/ml. It counts as functional.

Data set [6] has as its target Ubiquitin carboxyl-terminal hydrolase 7 (Homo sapiens) (UniProt Q93009). As to the kind of experiment: Inhibition of 6His-tagged human USP7 using Ub-Rh110Gly as fluorogenic substrate at 40 uM preincubated for 1 hr followed by substrate addition by plate reader analysis.
Data set [7] relates to HeLa. Nature of the data set: Cytotoxicity against human HeLa cells at 128 ug/ml incubated for 20 hrs by […] assay. It counts as functional, cell-based. Particulars: dose 128.0 µg/ml.
Data set [8] has as its target Ubiquitin carboxyl-terminal hydrolase 14 (Homo sapiens) (UniProt P54578). As to the kind of experiment: Inhibition of human USP14 using Ub-Rh110Gly as fluorogenic substrate at 40 uM preincubated for 1 hr followed by substrate addition by plate reader analysis.
Data set [9] relates to Chlamydia trachomatis. As to the kind of experiment: Inhibition of C-terminal 6His-tagged Chlamydia trachomatis DUB1 (130 to 401 residues) expressed in Escherichia coli Rosetta 2 (DE3) cells using Ub-Rh110Gly as fluorogenic substrate at 40 uM preincubated for 1 hr followed by substrate addition by plate reader analysis.
The subject of data set [10] is HEp-2. As to the kind of experiment: Cytotoxicity against human HEp-2 cells at 4 to 128 ug/ml incubated for 20 hrs by […] assay. As to conditions: hep-2, 20 h, dose 4-128 µg/ml. It counts as toxicity, cell-based.
In data set [11] the target is T1, Ubiquitin thioesterase OTU1 (Homo sapiens) (UniProt Q5VVQ6).
T1 sequence (whole entry): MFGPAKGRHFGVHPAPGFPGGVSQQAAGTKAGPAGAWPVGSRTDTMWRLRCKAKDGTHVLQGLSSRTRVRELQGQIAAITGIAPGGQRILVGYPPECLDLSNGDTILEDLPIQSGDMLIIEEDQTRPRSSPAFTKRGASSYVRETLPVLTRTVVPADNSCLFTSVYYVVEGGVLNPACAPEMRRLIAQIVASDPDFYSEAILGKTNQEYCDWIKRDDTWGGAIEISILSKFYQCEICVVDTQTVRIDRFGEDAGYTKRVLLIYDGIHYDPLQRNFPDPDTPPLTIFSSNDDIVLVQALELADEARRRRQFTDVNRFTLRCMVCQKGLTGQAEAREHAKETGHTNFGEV
As to the kind of experiment: Inhibition of GST-tagged human OTUD2 using Ub-AMC as substrate at 40 uM preincubated for 1 hr followed by substrate addition by plate reader analysis.

Data set [12] deals with T2, OTU domain-containing protein 3 (Homo sapiens) (UniProt Q5T2D3).
T2 sequence (whole entry): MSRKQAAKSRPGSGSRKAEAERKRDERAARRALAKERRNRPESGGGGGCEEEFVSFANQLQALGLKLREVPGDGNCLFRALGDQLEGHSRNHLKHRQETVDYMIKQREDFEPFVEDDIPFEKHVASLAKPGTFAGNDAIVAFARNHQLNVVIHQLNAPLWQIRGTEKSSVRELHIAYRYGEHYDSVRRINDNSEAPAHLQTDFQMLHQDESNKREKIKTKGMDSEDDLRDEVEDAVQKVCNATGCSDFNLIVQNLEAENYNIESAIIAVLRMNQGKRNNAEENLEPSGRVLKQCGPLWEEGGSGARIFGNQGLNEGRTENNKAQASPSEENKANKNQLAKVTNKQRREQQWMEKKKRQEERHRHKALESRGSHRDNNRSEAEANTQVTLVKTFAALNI
As to the kind of experiment: Inhibition of GST-tagged human OTUD3 using Ub-Rh110Gly as fluorogenic substrate at 40 uM preincubated for 1 hr followed by substrate addition by plate reader analysis.

The target of data set [13] is T3, Ubiquitin carboxyl-terminal hydrolase isozyme L1 (Homo sapiens, UniProt P09936).
T3 sequence (P09936 whole entry): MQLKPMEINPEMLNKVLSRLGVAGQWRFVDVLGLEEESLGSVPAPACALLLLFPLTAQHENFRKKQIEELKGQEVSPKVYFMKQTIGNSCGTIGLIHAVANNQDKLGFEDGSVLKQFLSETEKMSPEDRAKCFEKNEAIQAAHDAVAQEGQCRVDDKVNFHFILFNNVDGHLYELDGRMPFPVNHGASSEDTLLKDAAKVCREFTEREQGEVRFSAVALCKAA
As to the kind of experiment: Inhibition of 6His-tagged human UCHL1 using Ub-Rh110Gly as fluorogenic substrate preincubated for 1 hr followed by substrate addition by plate reader analysis.

The test system of data set [14] is Chlamydia trachomatis. Nature of the data set: Antimicrobial activity against Chlamydia trachomatis serovar L2 infected in human HeLa cells assessed as reduction in microbial progeny at 3.13 ug/ml measured after 48 hrs of post-infection by immunofluorescence analysis. It counts as functional. The arrangement: scale not given: the % may be the effect or the level left. Particulars: dose 3.13 µg/ml.

The nature of data set [15]: Solubility of compound in PBS incubated overnight by shake-flask based HPLC analysis. It counts as physicochemical.
Data set [16] in a line: Inhibition of Chlamydia trachomatis DUB2 expressed in Escherichia coli Rosetta 2 (DE3) cells using Ub-Rh110Gly as fluorogenic substrate preincubated for 1 hr followed by substrate addition by plate reader analysis.
The subject of data set [17] is Chlamydia trachomatis. Nature of the data set: Antimicrobial activity against Chlamydia trachomatis serovar L2 infected in human HeLa cells assessed as reduction in microbial progeny at 1.56 ug/ml measured after 24 hrs of post-infection by immunofluorescence analysis. The format is functional. Particulars: dose 1.56 µg/ml.
Data set [18] has as its system Chlamydia trachomatis. Nature of the data set: Antimicrobial activity against Chlamydia trachomatis serovar L2 infected in human HeLa cells assessed as reduction in microbial progeny at 12.5 ug/ml measured after 24 hrs of post-infection by immunofluorescence analysis. Particulars: dose 12.5 µg/ml. The format is functional. The arrangement: scale not given: the % may be the effect or the level left.

Data set [19] relates to Chlamydia trachomatis. As to the kind of experiment: Antimicrobial activity against Chlamydia trachomatis serovar L2 infected in human HeLa cells assessed as reduction in inclusion circumference at 6.25 ug/ml measured after 24 hrs of post-infection by microscopic analysis (reference value: 31.72 micrometer). The format is functional. As to conditions: dose 6.25 µg/ml.
For data set [20], the system named is Chlamydia trachomatis. Nature of the data set: Antimicrobial activity against Chlamydia trachomatis serovar L2 infected in human HeLa cells assessed as inclusion forming unit at 1.56 to 6.25 ug/ml measured after 24 hrs of post-infection by immunofluorescence based microscopic analysis. It counts as functional. As to conditions: dose 1.56-6.25 µg/ml.
Data set [21] deals with Chlamydia trachomatis. Nature of the data set: Antimicrobial activity against Chlamydia trachomatis serovar L2 infected in human HeLa cells assessed as reduction in inclusion area at 6.25 ug/ml measured after 24 hrs of post-infection by microscopic analysis. It counts as functional. Particulars: dose 6.25 µg/ml.

Ubiquitin carboxyl-terminal hydrolase 14 (Homo sapiens), sequence (P54578 whole entry, the tested form may be a part): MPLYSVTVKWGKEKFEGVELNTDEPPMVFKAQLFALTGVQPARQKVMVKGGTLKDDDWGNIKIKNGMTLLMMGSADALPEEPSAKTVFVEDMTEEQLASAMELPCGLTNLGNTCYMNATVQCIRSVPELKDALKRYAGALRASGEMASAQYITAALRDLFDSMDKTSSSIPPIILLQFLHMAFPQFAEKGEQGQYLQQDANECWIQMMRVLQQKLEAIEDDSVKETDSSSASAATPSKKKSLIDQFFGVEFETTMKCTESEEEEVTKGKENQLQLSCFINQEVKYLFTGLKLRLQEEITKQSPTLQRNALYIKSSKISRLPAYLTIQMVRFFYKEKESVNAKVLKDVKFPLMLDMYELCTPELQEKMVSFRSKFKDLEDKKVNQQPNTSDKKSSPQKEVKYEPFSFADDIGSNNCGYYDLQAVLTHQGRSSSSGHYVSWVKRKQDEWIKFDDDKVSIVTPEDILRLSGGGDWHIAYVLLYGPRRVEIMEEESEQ
Ubiquitin carboxyl-terminal hydrolase 7 (Homo sapiens), sequence (Q93009 whole entry, looked up): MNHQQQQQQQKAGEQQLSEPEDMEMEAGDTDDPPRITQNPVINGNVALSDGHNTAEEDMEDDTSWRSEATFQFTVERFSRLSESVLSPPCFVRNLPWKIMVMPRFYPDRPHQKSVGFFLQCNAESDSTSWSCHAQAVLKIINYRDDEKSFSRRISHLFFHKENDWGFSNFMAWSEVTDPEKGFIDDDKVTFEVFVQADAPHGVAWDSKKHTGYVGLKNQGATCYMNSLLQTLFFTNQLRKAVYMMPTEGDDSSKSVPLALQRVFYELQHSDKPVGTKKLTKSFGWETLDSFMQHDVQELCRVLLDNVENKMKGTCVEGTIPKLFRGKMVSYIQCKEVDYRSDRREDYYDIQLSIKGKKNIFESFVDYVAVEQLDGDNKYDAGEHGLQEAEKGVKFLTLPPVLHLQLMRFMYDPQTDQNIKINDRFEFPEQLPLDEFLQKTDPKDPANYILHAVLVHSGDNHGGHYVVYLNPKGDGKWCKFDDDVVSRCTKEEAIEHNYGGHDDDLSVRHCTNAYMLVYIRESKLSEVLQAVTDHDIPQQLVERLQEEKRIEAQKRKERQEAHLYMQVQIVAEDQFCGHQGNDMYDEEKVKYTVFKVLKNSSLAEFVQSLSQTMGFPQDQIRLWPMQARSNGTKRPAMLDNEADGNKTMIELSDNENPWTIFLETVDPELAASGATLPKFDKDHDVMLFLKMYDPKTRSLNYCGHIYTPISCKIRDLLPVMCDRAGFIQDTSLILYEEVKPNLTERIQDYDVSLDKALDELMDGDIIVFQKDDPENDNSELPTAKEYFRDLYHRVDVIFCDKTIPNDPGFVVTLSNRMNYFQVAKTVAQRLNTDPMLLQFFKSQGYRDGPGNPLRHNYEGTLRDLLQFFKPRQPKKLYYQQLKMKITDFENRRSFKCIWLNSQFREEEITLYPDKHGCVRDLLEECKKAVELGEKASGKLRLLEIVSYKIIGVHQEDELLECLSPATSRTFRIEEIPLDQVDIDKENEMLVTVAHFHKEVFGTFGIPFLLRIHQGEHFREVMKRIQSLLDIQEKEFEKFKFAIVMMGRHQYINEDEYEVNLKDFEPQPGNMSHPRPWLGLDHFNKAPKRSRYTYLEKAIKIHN

`N#Cc1ncc(C(=O)NCc2ccc(C(=O)NC34CC5CC(CC(C5)C3)C4)cc2)cn1`: the Activity is on record as 41% in data set [1]; 3.7 10^6IFU/ml in [3]; 98.5% in data set [5]; “Toxic” in [10]; 11% in data set [14]; 80% in [18]. The Activity in data set [19] is reported as 25.98 um; in data set [20], 1.075 10^7IFU/ml; in data set [21], 47.16 um2. Further, the result in data set [2] was Active. Moreover, the “fold change (FC)” value in [4] worked out at 200. Also, the inhibition result in data set [6], in data set [8], in data set [11] and in data set [12] was “inactive” each time. The result in data set [7] and in data set [17] was inactive. Also, in data set [9], the inhibition entry was “Active”. In addition, the IC50 in [13] was found to be 4.2 µM; in data set [16], 15.7 µM. In addition, the thermodynamic solubility in data set [15] is 308 µM (≈ 128 µg/mL).
